How the values were obtained:
Experiment in all cases: cells
COLO-824 = format: functional, cell-based, Homo sapiens; conditions: Homo sapiens, COLO-824
Description: SANGER: Inhibition of human COLO-824 cell growth in a cell viability assay.

DMS-114 = format: functional, cell-based, Homo sapiens; conditions: Homo sapiens, DMS-114
EFM-19 = format: functional, cell-based, Homo sapiens; conditions: Homo sapiens, EFM-19;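 further: growth inhibition of human EFM-19 cells, measured in a cell viability assay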
Description: SANGER: Inhibition of human EFM-19 cell growth in a cell viability assay.

EW-16 = format: functional, cell-based, Homo sapiens; conditions: Homo sapiens, EW-16;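 further: growth inhibition of human EW-16 cells, read out as cell viability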
Description: SANGER: Inhibition of human EW-16 cell growth in a cell viability assay.

GAMG = format: functional, cell-based, Homo sapiens; conditions: Homo sapiens, GAMG;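 further: cell growth inhibition measured by a viability assay in the GAMG human cell line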
Description: SANGER: Inhibition of human GAMG cell growth in a cell viability assay.

GB-1 = format: functional, cell-based, Homo sapiens; conditions: Homo sapiens, GB-1;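 further: growth of GB-1 cells judged by a viability assay, IC50 marks the concentration inhibiting growth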
Description: SANGER: Inhibition of human GB-1 cell growth in a cell viability assay.

GP5d = format: functional, cell-based, Homo sapiens; conditions: Homo sapiens, GP5d;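 further: growth inhibition of human GP5d cells, read out with a cell viability assay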
Description: SANGER: Inhibition of human GP5d cell growth in a cell viability assay.

HSC-2 = format: functional, cell-based, Homo sapiens; conditions: Homo sapiens, HSC-2;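 further: growth inhibition of human HSC-2 cells, read out by a cell viability assay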
Description: SANGER: Inhibition of human HSC-2 cell growth in a cell viability assay.

HSC-3 = format: functional, cell-based, Homo sapiens; conditions: Homo sapiens, HSC-3
Description: SANGER: Inhibition of human HSC-3 cell growth in a cell viability assay.

HT-1376 = format: functional, cell-based, Homo sapiens; conditions: Homo sapiens, HT-1376
Description: SANGER: Inhibition of human HT-1376 cell growth in a cell viability assay.

IGR-1 = format: functional, cell-based, Homo sapiens; conditions: Homo sapiens, IGR-1;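 further: growth inhibition of human IGR-1 cells, read out with a cell viability assay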
Description: SANGER: Inhibition of human IGR-1 cell growth in a cell viability assay.

JVM-2 = format: functional, cell-based; conditions: Homo sapiens;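 further: growth inhibition of JVM-2 cells determined by a cell viability assay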
Description: SANGER: Inhibition of human JVM-2 cell growth in a cell viability assay.

KYSE-180 = format: functional, cell-based, Homo sapiens; conditions: Homo sapiens, KYSE-180;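 further: growth inhibition of KYSE-180 cells, read out with a cell viability assay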
Description: SANGER: Inhibition of human KYSE-180 cell growth in a cell viability assay.

KYSE-510 = format: functional, cell-based, Homo sapiens; conditions: Homo sapiens, KYSE-510;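 further: cell viability readout used to measure how strongly growth of the cell line is suppressed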
Description: SANGER: Inhibition of human KYSE-510 cell growth in a cell viability assay.

LB1047-RCC = format: functional, cell-based, Homo sapiens; conditions: Homo sapiens, LB1047-RCC;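 further: inhibition of cell growth, determined with a cell viability assay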
Description: SANGER: Inhibition of human LB1047-RCC cell growth in a cell viability assay.

LS-411N = format: functional, cell-based, Homo sapiens; conditions: Homo sapiens, LS-411N
M059J = format: functional, cell-based, Homo sapiens; conditions: Homo sapiens, M059J;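 further: growth inhibition of M059J cells, read out with a cell viability assay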
Description: SANGER: Inhibition of human M059J cell growth in a cell viability assay.

MHH-ES-1 = format: functional, cell-based, Homo sapiens; conditions: Homo sapiens, MHH-ES-1;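 further: cell growth inhibition measured by a cell viability assay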
Description: SANGER: Inhibition of human MHH-ES-1 cell growth in a cell viability assay.

MLMA = format: functional, cell-based, Homo sapiens; conditions: Homo sapiens, MLMA;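 further: growth inhibition of MLMA cells (human), determined through a cell viability readout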
Description: SANGER: Inhibition of human MLMA cell growth in a cell viability assay.

MS-1 = format: functional, cell-based; conditions: Homo sapiens
Description: SANGER: Inhibition of human MS-1 cell growth in a cell viability assay.

MeWo = format: functional, cell-based, Homo sapiens; conditions: Homo sapiens, MeWo;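 further: growth inhibition of MeWo cells, determined by a cell viability readout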
Description: SANGER: Inhibition of human Mewo cell growth in a cell viability assay.

NB13 = format: functional, cell-based, Homo sapiens; conditions: Homo sapiens, NB13;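 further: cell viability readout measuring growth inhibition of human NB13 cells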
Description: SANGER: Inhibition of human NB13 cell growth in a cell viability assay.

NB6 = format: functional, cell-based, Homo sapiens; conditions: Homo sapiens, NB6;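 further: growth inhibition of NB6 cells, read out by a cell viability assay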
Description: SANGER: Inhibition of human NB6 cell growth in a cell viability assay.

NCI-H1299 = format: functional, cell-based, Homo sapiens; conditions: Homo sapiens, NCI-H1299;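 further: growth inhibition of human NCI-H1299 cells, read out by a cell viability assay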
Description: SANGER: Inhibition of human NCI-H1299 cell growth in a cell viability assay.

NCI-H1993 = format: functional, cell-based, Homo sapiens; conditions: Homo sapiens, NCI-H1993;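 further: growth inhibition of the cancer cell line, assessed with a cell viability assay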
Description: SANGER: Inhibition of human NCI-H1993 cell growth in a cell viability assay.

NCI-H2030 = format: functional, cell-based, Homo sapiens; conditions: Homo sapiens, NCI-H2030;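 further: growth inhibition of human NCI-H2030 cells, read out by a cell viability assay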
Description: SANGER: Inhibition of human NCI-H2030 cell growth in a cell viability assay.

NCI-H2170 = format: functional, cell-based, Homo sapiens; conditions: Homo sapiens, NCI-H2170;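 further: cell viability assay measuring growth inhibition of human NCI-H2170 cancer cells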
Description: SANGER: Inhibition of human NCI-H2170 cell growth in a cell viability assay.

NCI-H226 = format: functional, cell-based, Homo sapiens; conditions: Homo sapiens, NCI-H226;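 further: cell viability read-out used to gauge growth inhibition of the cells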
Description: SANGER: Inhibition of human NCI-H226 cell growth in a cell viability assay.

NCI-H2342 = format: functional, cell-based; conditions: Homo sapiens;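 further: growth inhibition of the cancer cell line, determined with a cell viability assay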
Description: SANGER: Inhibition of human NCI-H2342 cell growth in a cell viability assay.

NCI-H2452 = format: functional, cell-based, Homo sapiens; conditions: Homo sapiens, NCI-H2452;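 further: growth inhibition of NCI-H2452 cells, read out with a cell viability assay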
Description: SANGER: Inhibition of human NCI-H2452 cell growth in a cell viability assay.

NCI-H727 = format: functional, cell-based, Homo sapiens; conditions: Homo sapiens, NCI-H727;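 further: growth inhibition of human NCI-H727 cells, read out with a cell viability assay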
Description: SANGER: Inhibition of human NCI-H727 cell growth in a cell viability assay.

NOS-1 = format: functional, cell-based, Homo sapiens; conditions: Homo sapiens, NOS-1;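 further: growth inhibition of the human NOS-1 cell line, read out with a cell viability assay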
Description: SANGER: Inhibition of human NOS-1 cell growth in a cell viability assay.

RCC10RGB = format: functional, cell-based, Homo sapiens; conditions: Homo sapiens, RCC10RGB;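 further: growth inhibition of human RCC10RGB cells, read out by a cell viability assay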
Description: SANGER: Inhibition of human RCC10RGB cell growth in a cell viability assay.

RO82-W-1 = format: functional, cell-based, Homo sapiens; conditions: Homo sapiens, RO82-W-1;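 further: growth inhibition of human RO82-W-1 cells, measured with a cell viability assay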
Description: SANGER: Inhibition of human RO82-W-1 cell growth in a cell viability assay.

SK-LU-1 = format: functional, cell-based, Homo sapiens; conditions: Homo sapiens, SK-LU-1;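 further: cell viability assay measuring growth inhibition of human SK-LU-1 cells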
Description: SANGER: Inhibition of human SK-LU-1 cell growth in a cell viability assay.

SNB-75 = format: functional, cell-based, Homo sapiens; conditions: Homo sapiens, SNB-75;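 further: cell viability assay measuring growth inhibition of human SNB-75 cells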
Description: SANGER: Inhibition of human SNB75 cell growth in a cell viability assay.

SW1710 = format: functional, cell-based, Homo sapiens; conditions: Homo sapiens, SW1710;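 further: growth inhibition of SW1710 cells, determined with a cell viability assay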
Description: SANGER: Inhibition of human SW1710 cell growth in a cell viability assay.

SW1783 = format: functional, cell-based; conditions: Homo sapiens;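 further: cell growth inhibition measured with a viability assay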
Description: SANGER: Inhibition of human SW1783 cell growth in a cell viability assay.

SW684 = format: functional, cell-based, Homo sapiens; conditions: Homo sapiens, SW684;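 further: growth inhibition of human SW684 cells, measured by a cell viability assay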
Description: SANGER: Inhibition of human SW684 cell growth in a cell viability assay.

T47D = format: functional, cell-based, Homo sapiens; conditions: Homo sapiens, T47D;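 further: growth inhibition of human T47D cells, measured with a cell viability assay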
Description: SANGER: Inhibition of human T47D cell growth in a cell viability assay.

769-P = format: functional, cell-based, Homo sapiens; conditions: Homo sapiens, 769-P
Description: SANGER: Inhibition of human 769-P cell growth in a cell viability assay.

A101D = format: functional, cell-based, Homo sapiens; conditions: Homo sapiens, A101D;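 further: growth inhibition of the cell line, measured with a viability assay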
Description: SANGER: Inhibition of human A101D cell growth in a cell viability assay.

A253 cell line = format: functional, cell-based, Homo sapiens; conditions: Homo sapiens, A253;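 further: growth inhibition of A253 cells, read out with a cell viability assay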
Description: SANGER: Inhibition of human A253 cell growth in a cell viability assay.

A-375 = format: functional, cell-based, Homo sapiens; conditions: Homo sapiens, A-375;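 further: growth inhibition of A375 cells, read out with a cell viability assay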
Description: SANGER: Inhibition of human A375 cell growth in a cell viability assay.

A388 = format: functional, cell-based, Homo sapiens; conditions: Homo sapiens, A388;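 further: growth inhibition of human A388 cells, read out with a cell viability assay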
Description: SANGER: Inhibition of human A388 cell growth in a cell viability assay.

AU565 = format: functional, cell-based, Homo sapiens; conditions: Homo sapiens, AU565;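 further: cell viability assay measuring growth inhibition of human AU565 cells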
Description: SANGER: Inhibition of human AU565 cell growth in a cell viability assay.

C8166 = format: functional, cell-based; conditions: Homo sapiens;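 further: growth inhibition of human C8166 cells measured by a cell viability assay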
Description: SANGER: Inhibition of human C8166 cell growth in a cell viability assay.

UACC-893 = format: functional, cell-based, Homo sapiens; conditions: Homo sapiens, UACC-893
Description: SANGER: Inhibition of human UACC-893 cell growth in a cell viability assay.

UMC-11 = format: functional, cell-based, Homo sapiens; conditions: Homo sapiens, UMC-11;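 further: growth inhibition of UMC-11 cells, read out with a cell viability assay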
Description: SANGER: Inhibition of human UMC-11 cell growth in a cell viability assay.

D-247MG = format: functional, cell-based, Homo sapiens; conditions: Homo sapiens, D-247MG
Description: SANGER: Inhibition of human D-247MG cell growth in a cell viability assay.

`C=CCc1cccc(/C=N/NC(=O)CN2CCN(Cc3ccccc3)CC2)c1O` [PAC-1] gave an IC50 (COLO-824) greater than 2.56 µM, an IC50 (DMS-114) greater than 2.56 µM and an IC50 (EFM-19) of 1950 nM. It also gave an IC50 (EW-16) greater than 2.56 µM, an IC50 (GAMG) greater than 2.56 µM and an IC50 (GB-1) greater than 2.56 µM. For the same molecule, the IC50 (GP5d) was greater than 2.56 µM, the IC50 (HSC-2) was greater than 2.56 µM and the IC50 (HSC-3) was greater than 2.56 µM. The IC50 (HT-1376) was greater than 2.56 µM, the IC50 (IGR-1) was greater than 2.56 µM and the IC50 (JVM-2) was greater than 2.56 µM. The IC50 (KYSE-180) was greater than 2.56 µM, the IC50 (KYSE-510) was 1830 nM and the IC50 (LB1047-RCC) was greater than 2.56 µM. It also gave an IC50 (LS-411N) of 2080 nM, an IC50 (M059J) greater than 2.56 µM and an IC50 (MHH-ES-1) greater than 2.56 µM. It also gave an IC50 (MLMA) greater than 2.56 µM, an IC50 (MS-1) greater than 2.56 µM and an IC50 (MeWo) greater than 2.56 µM. It also gave an IC50 (NB13) greater than 2.56 µM, an IC50 (NB6) greater than 2.56 µM and an IC50 (NCI-H1299) greater than 2.56 µM. For the same molecule, the IC50 (NCI-H1993) was greater than 2.56 µM, the IC50 (NCI-H2030) was greater than 2.56 µM and the IC50 (NCI-H2170) was greater than 2.56 µM. It also gave an IC50 (NCI-H226) greater than 2.56 µM, an IC50 (NCI-H2342) greater than 2.56 µM and an IC50 (NCI-H2452) greater than 2.56 µM. It also gave an IC50 (NCI-H727) of 2000 nM, an IC50 (NOS-1) greater than 2.56 µM and an IC50 (RCC10RGB) greater than 2.56 µM. It also gave an IC50 (RO82-W-1) greater than 2.56 µM, an IC50 (SK-LU-1) greater than 2.56 µM and an IC50 (SNB-75) greater than 2.56 µM. The IC50 (SW1710) was greater than 2.56 µM, the IC50 (SW1783) was greater than 2.56 µM and the IC50 (SW684) was greater than 2.56 µM. It also gave an IC50 (T47D) greater than 2.56 µM, an IC50 (769-P) greater than 2.56 µM and an IC50 (A101D) greater than 2.56 µM. The IC50 (A253 cell line) was greater than 2560 nM, the IC50 (A-375) was 869 nM and the IC50 (A388) was greater than 2.56 µM. For the same molecule, the IC50 (AU565) was greater than 2.56 µM, the IC50 (C8166) was 1220 nM and the IC50 (UACC-893) was greater than 2.56 µM. The IC50 (UMC-11) was greater than 2.56 µM.
Molecule `Cn1cc(C2=C(c3ccc(Cl)cc3Cl)C(=O)NC2=O)c2ccccc21` [SB-216763] has an IC50 (COLO-824) greater than 10 µM, an IC50 (D-247MG) greater than 10 µM and an IC50 (DMS-114) greater than 10 µM. The IC50 (EFM-19) was greater than 10000 nM, the IC50 (EW-16) was greater than 10 µM and the IC50 (GAMG) was 6.65 µM. For the same molecule, the IC50 (GB-1) was greater than 10 µM, the IC50 (GP5d) was greater than 10 µM and the IC50 (HSC-2) was greater than 10 µM. It also gave an IC50 (HSC-3) greater than 10 µM, an IC50 (HT-1376) greater than 10 µM and an IC50 (IGR-1) greater than 10 µM. It also gave an IC50 (JVM-2) greater than 10 µM, an IC50 (KYSE-180) greater than 10 µM and an IC50 (KYSE-510) greater than 10000 nM. It also gave an IC50 (LB1047-RCC) greater than 10 µM, an IC50 (LS-411N) greater than 10000 nM and an IC50 (M059J) greater than 10 µM. For the same molecule, the IC50 (MHH-ES-1) was greater than 10 µM, the IC50 (MLMA) was greater than 10 µM and the IC50 (MS-1) was greater than 10 µM. The IC50 (MeWo) was greater than 10 µM, the IC50 (NB13) was greater than 10 µM and the IC50 (NB6) was greater than 10 µM. The IC50 (NCI-H1299) was greater than 10 µM, the IC50 (NCI-H1993) was 8.37 µM and the IC50 (NCI-H2030) was greater than 10 µM. It also gave an IC50 (NCI-H2170) greater than 10 µM, an IC50 (NCI-H226) greater than 10 µM and an IC50 (NCI-H2342) greater than 10 µM. The IC50 (NCI-H2452) was greater than 10 µM, the IC50 (NCI-H727) was greater than 10000 nM and the IC50 (NOS-1) was greater than 10 µM. The IC50 (RCC10RGB) was greater than 10 µM, the IC50 (RO82-W-1) was greater than 10 µM and the IC50 (SK-LU-1) was greater than 10 µM. For the same molecule, the IC50 (SNB-75) was greater than 10 µM, the IC50 (SW1710) was greater than 10 µM and the IC50 (SW1783) was greater than 10 µM. It also gave an IC50 (SW684) greater than 10 µM, an IC50 (T47D) greater than 10 µM and an IC50 (769-P) greater than 10 µM. The IC50 (A101D) was greater than 10 µM, the IC50 (A-375) was greater than 10000 nM and the IC50 (A388) was greater than 10 µM. The IC50 (AU565) was greater than 10 µM, the IC50 (C8166) was greater than 10000 nM and the IC50 (UACC-893) was greater than 10 µM. It also gave an IC50 (UMC-11) greater than 10 µM.
